Source: ChEMBL document CHEMBL3994622, “Design and synthesis of new RAF kinase-inhibiting antiproliferative quinoline derivatives. Part 2: Diarylurea derivatives” (Eur J Med Chem, 2017)

What was measured:
[1] = tested on: HOP-62; test: Growth inhibition of human HOP62 cells incubated for 48 hrs by sulforhodamine B assay; format: functional; details: HOP-62, 48 h; for CC50: read-out: LC50 (the source's name)
[2] = tested on: NCI-H522; test: Growth inhibition of human NCI-H522 cells incubated for 48 hrs by sulforhodamine B assay; format: functional; details: NCI-H522, 48 h; for CC50: read-out: LC50 (the source's name)
[3] = tested on: SW-620; test: Growth inhibition of human SW620 cells incubated for 48 hrs by sulforhodamine B assay; format: functional; details: SW-620, 48 h
[4] = tested on: A549; test: Growth inhibition of human A549/ATCC cells incubated for 48 hrs by sulforhodamine B assay; format: functional; details: A549, 48 h; for CC50: read-out: LC50 (the source's name)
[5] = tested on: LOX IMVI; test: Growth inhibition of human LOXIMVI cells incubated for 48 hrs by sulforhodamine B assay; format: functional; details: for CC50: read-out: LC50 (the source's name)
[6] = tested on: Hs-578T; test: Growth inhibition of human Hs 578T cells incubated for 48 hrs by sulforhodamine B assay; format: functional; details: for CC50: read-out: LC50 (the source's name)
[7] = tested on: M14; test: Growth inhibition of human M14 cells incubated for 48 hrs by sulforhodamine B assay; format: functional; details: M14, 48 h; for CC50: read-out: LC50 (the source's name)
[8] = tested on: SK-MEL-28; test: Growth inhibition of human SK-MEL-28 cells incubated for 48 hrs by sulforhodamine B assay; format: functional; details: SK-MEL-28, 48 h; for CC50: read-out: LC50 (the source's name)
[9] = tested on: HT-29; test: Growth inhibition of human HT-29 cells incubated for 48 hrs by sulforhodamine B assay; format: functional; details: HT-29, 48 h; for CC50: read-out: LC50 (the source's name)
[10] = tested on: HT-29; test: Growth inhibition of human HT-29 cells assessed as cell growth at 1 uM incubated for 48 hrs by sulforhodamine B assay relative to control; format: functional; details: HT-29, 48 h, read-out: Activity
[11] = tested on: UO-31; test: Growth inhibition of human UO31 cells assessed as cell growth at 1 uM incubated for 48 hrs by sulforhodamine B assay relative to control; format: functional; details: UO-31, 48 h, read-out: Activity
[12] = tested on: T47D; test: Growth inhibition of human T47D cells incubated for 48 hrs by sulforhodamine B assay; format: functional; details: for CC50: read-out: LC50 (the source's name)
[13] = tested on: NCI-H322M; test: Growth inhibition of human NCI-H322M cells incubated for 48 hrs by sulforhodamine B assay; format: functional; details: for CC50: read-out: LC50 (the source's name)
[14] = tested on: NCI-H226; test: Growth inhibition of human NCI-H226 cells incubated for 48 hrs by sulforhodamine B assay; format: functional; details: NCI-H226, 48 h; for CC50: read-out: LC50 (the source's name)
[15] = tested on: HCT-116; test: Growth inhibition of human HCT116 cells incubated for 48 hrs by sulforhodamine B assay; format: functional; details: HCT-116, 48 h
[16] = tested on: A498; test: Growth inhibition of human A498 cells incubated for 48 hrs by sulforhodamine B assay; format: functional; details: A498, 48 h; for CC50: read-out: LC50 (the source's name)
[17] = tested on: OVCAR-3; test: Growth inhibition of human OVCAR3 cells incubated for 48 hrs by sulforhodamine B assay; format: functional; details: OVCAR-3, 48 h; for CC50: read-out: LC50 (the source's name)
[18] = tested on: HCT-15; test: Growth inhibition of human HCT15 cells incubated for 48 hrs by sulforhodamine B assay; format: functional; details: HCT-15, 48 h
[19] = tested on: SK-MEL-5; test: Growth inhibition of human SK-MEL-5 cells incubated for 48 hrs by sulforhodamine B assay; format: functional; details: SK-MEL-5, 48 h; for CC50: read-out: LC50 (the source's name)
[20] = tested on: UACC-257; test: Growth inhibition of human UACC257 cells assessed as cell growth at 10 uM incubated for 48 hrs by sulforhodamine B assay relative to control; format: functional; details: UACC-257, 48 h, read-out: Activity
[21] = tested on: SK-MEL-2; test: Growth inhibition of human SK-MEL-2 cells incubated for 48 hrs by sulforhodamine B assay; format: functional; details: SK-MEL-2, 48 h; for CC50: read-out: LC50 (the source's name)
[22] = target: RAF proto-oncogene serine/threonine-protein kinase (Homo sapiens, UniProt P04049); test: Inhibition of human c-RAF using MEK1 as substrate in presence of [33P]ATP by Hotspot assay
Sequence of RAF proto-oncogene serine/threonine-protein kinase (P04049 whole entry): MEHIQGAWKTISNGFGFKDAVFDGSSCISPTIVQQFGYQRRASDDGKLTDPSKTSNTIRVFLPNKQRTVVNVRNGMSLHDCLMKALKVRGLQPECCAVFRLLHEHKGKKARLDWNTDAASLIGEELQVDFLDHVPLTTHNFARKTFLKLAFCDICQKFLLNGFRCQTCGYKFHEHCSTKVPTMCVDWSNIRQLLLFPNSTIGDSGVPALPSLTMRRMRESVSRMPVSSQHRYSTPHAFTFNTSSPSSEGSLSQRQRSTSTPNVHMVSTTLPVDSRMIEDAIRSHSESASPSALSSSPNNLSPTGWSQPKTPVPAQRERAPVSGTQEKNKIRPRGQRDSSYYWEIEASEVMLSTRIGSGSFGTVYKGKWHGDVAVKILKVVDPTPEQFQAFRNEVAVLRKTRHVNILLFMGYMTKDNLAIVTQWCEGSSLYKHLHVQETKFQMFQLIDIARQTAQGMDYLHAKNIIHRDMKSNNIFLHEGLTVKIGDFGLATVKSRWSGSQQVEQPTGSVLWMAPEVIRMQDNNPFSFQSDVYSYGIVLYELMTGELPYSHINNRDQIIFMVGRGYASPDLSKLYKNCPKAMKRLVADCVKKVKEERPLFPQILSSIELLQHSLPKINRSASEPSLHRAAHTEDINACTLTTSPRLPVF

[23] = tested on: UACC-257; test: Growth inhibition of human UACC257 cells assessed as cell growth at 0.1 uM incubated for 48 hrs by sulforhodamine B assay relative to control; format: functional; details: UACC-257, 48 h, read-out: Activity
[24] = tested on: DU-145; test: Growth inhibition of human DU145 cells incubated for 48 hrs by sulforhodamine B assay; format: functional; details: DU-145, 48 h; for CC50: read-out: LC50 (the source's name)
[25] = tested on: A549; test: Growth inhibition of human A549/ATCC cells assessed as cell growth at 10 uM incubated for 48 hrs by sulforhodamine B assay relative to control; format: functional; details: A549, 48 h, read-out: Activity
[26] = tested on: UACC-257; test: Growth inhibition of human UACC257 cells incubated for 48 hrs by sulforhodamine B assay; format: functional; details: UACC-257, 48 h; for CC50: read-out: LC50 (the source's name)
[27] = tested on: T47D; test: Growth inhibition of human T47D cells assessed as cell growth at 30 uM incubated for 48 hrs by sulforhodamine B assay relative to control; format: functional; details: read-out: Activity
[28] = tested on: HCC 2998; test: Growth inhibition of human HCC2998 cells assessed as cell growth at 0.3 uM incubated for 48 hrs by sulforhodamine B assay relative to control; format: functional; details: HCC 2998, 48 h, read-out: Activity
[29] = tested on: HOP-92; test: Growth inhibition of human HOP92 cells assessed as cell growth at 30 uM incubated for 48 hrs by sulforhodamine B assay relative to control; format: functional; details: HOP-92, 48 h, read-out: Activity
[30] = tested on: HL-60(TB); test: Growth inhibition of human HL-60(TB) cells assessed as cell growth at 0.3 uM incubated for 48 hrs by sulforhodamine B assay relative to control; format: functional; details: HL-60, 48 h, read-out: Activity
[31] = tested on: SNB-19; test: Growth inhibition of human SNB19 cells assessed as cell growth at 3 uM incubated for 48 hrs by sulforhodamine B assay relative to control; format: functional; details: SNB-19, 48 h, read-out: Activity
[32] = tested on: SF-268; test: Growth inhibition of human SF268 cells assessed as cell growth at 3 uM incubated for 48 hrs by sulforhodamine B assay relative to control; format: functional; details: SF-268, 48 h, read-out: Activity
[33] = tested on: MOLT-4; test: Growth inhibition of human MOLT4 cells assessed as cell growth at 0.03 uM incubated for 48 hrs by sulforhodamine B assay relative to control; format: functional; details: MOLT-4, 48 h, read-out: Activity

COc1cc2cc(Oc3ccc(NC(=O)Nc4ccc(Cl)c(Cl)c4)cc3)c(C)nc2cc1OC
GI50 [1]: 3.55 µM | TGI [1]: 11.9 µM | CC50 [1]: 34.4 µM | GI50 [2]: 1.74 µM | TGI [2]: 8.43 µM | CC50 [2]: 59.5 µM | GI50 [3]: 4.24 µM | LC50 [3]: 60.9 µM | TGI [3]: 15.6 µM | GI50 [4]: 1.64 µM | TGI [4]: 7.61 µM | CC50 [4]: 28.3 µM | GI50 [5]: 3.45 µM | TGI [5]: 14.6 µM | CC50 [5]: 38.2 µM | GI50 [6]: 3.53 µM | TGI [6]: 9.68 µM | CC50 [6]: > 100 µM | GI50 [7]: 2.56 µM | TGI [7]: 10.5 µM | CC50 [7]: 34.7 µM | GI50 [8]: 3.77 µM | TGI [8]: 14.7 µM | CC50 [8]: 51.2 µM | GI50 [9]: 2.34 µM | TGI [9]: 4.89 µM | CC50 [9]: 10.6 µM | growth at 1 µM [10]: 108% | growth at 1 µM [11]: 100% | GI50 [12]: 2.7 µM | TGI [12]: 10.1 µM | CC50 [12]: 84.7 µM | GI50 [13]: 8.66 µM | TGI [13]: 60.3 µM | CC50 [13]: > 100 µM | GI50 [14]: 3.12 µM | TGI [14]: 8.68 µM | CC50 [14]: 35.8 µM | GI50 [15]: 2.26 µM | LC50 (50% lethal concentration) [15]: 32.6 µM | TGI [15]: 10.5 µM | GI50 [16]: 1.95 µM | TGI [16]: 7.93 µM | CC50 [16]: 74.9 µM | GI50 [17]: 2.34 µM | TGI [17]: 6.19 µM | CC50 [17]: 22.2 µM | GI50 [18]: 3.56 µM | LC50 (lethal concentration, 50% net cell kill) [18]: > 100 µM | TGI [18]: > 100 µM | GI50 [19]: 2.58 µM | TGI [19]: 8.09 µM | CC50 [19]: 30.8 µM | growth at 10 µM [20]: -23% | GI50 [21]: 3 µM | TGI [21]: 6.55 µM | CC50 [21]: 20.6 µM | IC50 [22]: 0.22 µM | growth at 0.1 µM [23]: 92% | GI50 [24]: 4.27 µM | TGI [24]: 17.1 µM | CC50 [24]: 68.4 µM | growth at 10 µM [25]: -9% | GI50 [26]: 2.31 µM | TGI [26]: 6.28 µM | CC50 [26]: 24.4 µM

COc1cc2cc(Oc3ccc(NC(=O)Nc4ccc(Cl)c(C(F)(F)F)c4)cc3)c(C)nc2cc1OC
GI50 [1]: 1.3 µM | TGI [1]: 5.32 µM | CC50 [1]: 13.7 µM | GI50 [2]: 0.773 µM | TGI [2]: 2.65 µM | CC50 [2]: 12.2 µM | growth at 30 µM [27]: -30% | GI50 [3]: 1.25 µM | LC50 [3]: 14 µM | TGI [3]: 4.57 µM | GI50 [4]: 1 µM | TGI [4]: 4.16 µM | CC50 [4]: 15.1 µM | GI50 [5]: 1.22 µM | TGI [5]: 4.16 µM | CC50 [5]: 11.6 µM | GI50 [6]: 0.72 µM | TGI [6]: 2.31 µM | CC50 [6]: 27.4 µM | GI50 [7]: 1.25 µM | TGI [7]: 5.25 µM | CC50 [7]: 19.2 µM | GI50 [8]: 1.41 µM | TGI [8]: 5.45 µM | CC50 [8]: 14.4 µM | GI50 [9]: 1.2 µM | TGI [9]: 3.98 µM | CC50 [9]: 14.2 µM | growth at 0.3 µM [28]: 109% | GI50 [12]: 1.21 µM | TGI [12]: 7.9 µM | CC50 [12]: > 32.5 µM | GI50 [13]: 2.05 µM | TGI [13]: 6.28 µM | CC50 [13]: 16.3 µM | growth at 30 µM [29]: -79% | GI50 [14]: 1.27 µM | TGI [14]: 5.01 µM | CC50 [14]: > 32.5 µM | growth at 0.3 µM [30]: 111% | GI50 [15]: 0.994 µM | LC50 (50% lethal concentration) [15]: 14 µM | TGI [15]: 3.84 µM | GI50 [16]: 0.754 µM | TGI [16]: 3.32 µM | CC50 [16]: 10.7 µM | GI50 [17]: 1.16 µM | TGI [17]: 4.45 µM | CC50 [17]: 14 µM | GI50 [18]: 1.15 µM | LC50 (lethal concentration, 50% net cell kill) [18]: 16.9 µM | TGI [18]: 4.86 µM | GI50 [19]: 0.793 µM | TGI [19]: 2.17 µM | CC50 [19]: 8.01 µM | growth at 3 µM [31]: 24% | growth at 3 µM [32]: 26% | GI50 [21]: 0.799 to 0.8 µM | TGI [21]: 1.94 µM | CC50 [21]: 11 µM | IC50 [22]: 0.1 µM | GI50 [24]: 1.24 µM | TGI [24]: 5.11 µM | CC50 [24]: 19.1 µM | GI50 [26]: 0.71 µM | TGI [26]: 2.36 µM | CC50 [26]: 19.6 µM | growth at 0.03 µM [33]: 96%
